Data on 8 molecules can be found in BindingDB's records for doi:10.1016/j.ejmech.2018.02.025 (Chia Tai Tianqing Pharmaceutical Group, 2018).

SMILES strings stand for the structures.

A short description of experiment [1]: Inhibition of NS5A in HCV genotype 1b infected in human HuH7 replicon cells assessed as reduction in viral replication after 3 days by luciferase reporter gene assay.
A short description of experiment [2]: Inhibition of NS5A in HCV genotype 1a infected in human HuH7 replicon cells assessed as reduction in viral replication after 3 days by luciferase reporter gene assay.
A short description of experiment [3]: Inhibition of NS5A in HCV genotype 5a infected in human HuH7 replicon cells expressing HCV genotype 1b chimeric replicon assessed as reduction in viral replication after 3 days by luciferase reporter gene assay.
Experiment [4] in a line: Inhibition of NS5A in HCV genotype 6a infected in human HuH7 replicon cells expressing HCV genotype 1b chimeric replicon assessed as reduction in viral replication after 3 days by luciferase reporter gene assay.
A short description of experiment [5]: Inhibition of NS5A in HCV genotype 3a infected in human HuH7 replicon cells expressing HCV genotype 1b chimeric replicon assessed as reduction in viral replication after 3 days by luciferase reporter gene assay.
Experiment [6] in a line: Inhibition of NS5A in HCV genotype 2a JFH-1 infected in human Huh7.5.1 cells assessed as reduction in viral replication after 3 days by luciferase reporter gene assay.

In the case of `CC[Si](CC)(CC)c1ccc(N2[C@@H](c3ccc(NC(=O)[C@@H]4CCCN4C(=O)[C@@H](NC(=O)OC)C(C)C)cc3)CC[C@H]2c2ccc(NC(=O)[C@@H]3CCCN3C(=O)[C@@H](NC(=O)OC)C(C)C)cc2)cc1`, the EC50 in experiment [1] is 7 pM; in experiment [2], above 500 pM.
In the case of `CC[Si](CC)(CC)c1ccc(N2[C@H](c3ccc(NC(=O)[C@@H]4CCCN4C(=O)[C@@H](NC(=O)OC)C(C)C)cc3)CC[C@H]2c2ccc(NC(=O)[C@@H]3CCCN3C(=O)[C@@H](NC(=O)OC)C(C)C)cc2)cc1`, the EC50 in experiment [3] was determined as 1 pM; in experiment [1], 3 pM; in experiment [2], 7 pM; in experiment [4] it was 445 pM; in experiment [5], 10 pM.
With `COC(=O)N[C@H](C(=O)N1CCC[C@H]1C(=O)Nc1ccc([C@@H]2CC[C@@H](c3ccc(NC(=O)[C@@H]4CCCN4C(=O)[C@@H](NC(=O)OC)C(C)C)cc3)N2c2ccc([Si](C)(C)C)cc2)cc1)C(C)C`, the 50% effective concentration (EC50) in experiment [3] came to 1 pM; in experiment [1], 4 pM; in experiment [2] it was 14 pM; in experiment [4] it was 1410 pM; in experiment [6], 2.5 pM; in experiment [5], 38 pM.
Regarding `CC[Si](CC)(CC)c1ccc(N2[C@@H](c3ccc(NC(=O)[C@@H]4CCCN4C(=O)[C@@H](NC(=O)OC)C(C)C)cc3)CC[C@@H]2c2ccc(NC(=O)[C@@H]3CCCN3C(=O)[C@@H](NC(=O)OC)C(C)C)cc2)cc1`, the EC50 is 6 pM in experiment [1] and 41 pM in experiment [2].
Regarding `COC(=O)N[C@H](C(=O)N1CCC[C@H]1C(=O)Nc1ccc([C@H]2CC[C@@H](c3ccc(NC(=O)[C@@H]4CCCN4C(=O)[C@@H](NC(=O)OC)C(C)C)cc3)N2c2ccc([Si](C)(C)C)cc2)cc1)C(C)C`, the results for the 50% effective concentration (EC50) in experiment [1] and in experiment [2] were 8 pM and above 500 pM, respectively.
`COC(=O)N[C@H](C(=O)N1CCC[C@H]1C(=O)Nc1ccc([C@@H]2CC[C@@H](c3ccc(NC(=O)[C@@H]4CCCN4C(=O)[C@@H](NC(=O)OC)C(C)C)cc3)N2c2ccc([Si](C)(C)C(C)(C)C)cc2)cc1)C(C)C`: the EC50 in experiment [3] worked out at 1 pM; in experiment [1] it was 3 pM; in experiment [2], 11 pM; in experiment [4], 925 pM; in experiment [6] it was 1.1 pM; in experiment [5], 12 pM.
Consider `COC(=O)N[C@H](C(=O)N1CCC[C@H]1C(=O)Nc1ccc([C@@H]2CC[C@@H](c3ccc(NC(=O)[C@@H]4CCCN4C(=O)[C@@H](NC(=O)OC)C(C)C)cc3)N2c2ccc(C(C)(C)C)cc2)cc1)C(C)C` [CHEBI:85183], for which the EC50 in experiment [3] is 4 pM; in experiment [1], 5 pM; in experiment [2], 30 pM; in experiment [4], 3390 pM; in experiment [6] it was 2.6 pM; in experiment [5], 86 pM.
Consider `COC(=O)N[C@H](C(=O)N1CCC[C@H]1C(=O)Nc1ccc([C@H]2CC[C@H](c3ccc(NC(=O)[C@@H]4CCCN4C(=O)[C@@H](NC(=O)OC)C(C)C)cc3)N2c2ccc([Si](C)(C)C)cc2)cc1)C(C)C`, for which the EC50 in experiment [1] was 7 pM; in experiment [2], 118 pM.
